Assay results published in PubChem BioAssay (NCI).
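Five compound concentrations were applied to cells in 96-well plates for 48 hours; endpoints were derived by simple linear interpolation of the resulting dose-response curve. GI50: concentration for 50% inhibition of growth. TGI denotes the concentration required for complete inhibition of growth.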

Columns and labels:
Assay in all cases: NCI tumour cell line growth inhibition, 48 h
[1] = system: HOP-92 NSCLC
[2] = system: TK-10 renal
[3] = system: SF-268 CNS
[4] = system: SK-MEL-28 melanoma
[5] = system: EKVX NSCLC
[6] = system: NCI-H460 lung
[7] = system: LOX IMVI melanoma
[8] = system: HCC-2998 colon
[9] = system: SR leukemia
[10] = system: COLO 205 colon
[11] = system: SF-295 CNS
[12] = system: OVCAR-3 ovarian
[13] = system: SK-MEL-2 melanoma
[14] = system: UO-31 renal
[15] = system: UACC-62 melanoma
[16] = system: MDA-MB-435
[17] = system: OVCAR-4 ovarian
[18] = system: SF-539 CNS
[19] = system: NCI-H23 lung
[20] = system: DU-145 prostate
[21] = system: SNB-19 CNS
[22] = system: KM12 colon
[23] = system: SK-MEL-5 melanoma
[24] = system: HT29 colon
[25] = system: NCI-H226 lung
[26] = system: OVCAR-5 ovarian
[27] = system: NCI/ADR-RES ovarian
[28] = system: MCF7 breast
[29] = system: HS 578T breast
[30] = system: A498 renal
[31] = system: SK-OV-3 ovarian
[32] = system: CAKI-1 renal
[33] = system: U251 CNS
[34] = system: T-47D breast
[35] = system: MALME-3M melanoma
[36] = system: MOLT-4 leukemia
[37] = system: HL-60(TB) leukemia
[38] = system: SN12C renal
[39] = system: HCT-15 colon
[40] = system: RPMI-8226 leukemia
[41] = system: A549 NSCLC
[42] = system: SW-620 colon
[43] = system: NCI-H522 lung
[44] = system: CCRF-CEM leukemia
[45] = system: 786-0 renal
[46] = system: SNB-75 CNS
[47] = system: PC-3 prostate
[48] = system: HOP-62 NSCLC
[49] = system: IGROV1 ovarian
[50] = system: K-562 leukemia
[51] = system: M14 melanoma
[52] = system: MDA-MB-231 breast
[53] = system: HCT-116 colon
[54] = system: ACHN renal

With `COC(=O)c1cc2c(cc1Cl)SC(N(N(C)C)S(=O)(=O)c1ccc(Br)s1)=NS2(=O)=O` the GI50 [1] was 18.5 µM, the TGI [1] was 36.7 µM and the GI50 [2] was 29.7 µM. For the same compound, the TGI [2] was 82.1 µM, the GI50 [3] was 27.4 µM and the TGI [3] was 67.3 µM. The GI50 [4] was 17.8 µM, the TGI [4] was 35.3 µM and the GI50 [5] was 25.3 µM. The TGI [5] was 61 µM, the GI50 [6] was 22.4 µM and the TGI [6] was 43.9 µM. For the same compound, the GI50 [7] was 17.5 µM, the TGI [7] was 31.8 µM and the GI50 [8] was 19.7 µM. The TGI [8] was 40.6 µM, the GI50 [9] was 13.3 µM and the TGI [9] was 35.4 µM. The GI50 [10] was 21.2 µM, the TGI [10] was 50.9 µM and the GI50 [11] was 33.2 µM. The TGI [11] was 97.3 µM, the GI50 [12] was 21.6 µM and the TGI [12] was 56.9 µM. The GI50 [13] was 3.2 µM, the TGI [13] was 9.66 µM and the GI50 [14] was 27.3 µM. It also gave a TGI [14] of 81.3 µM, a GI50 [15] of 21.4 µM and a TGI [15] of 50.6 µM. For the same compound, the GI50 [16] was 23.1 µM, the TGI [16] was 49.7 µM and the GI50 [17] was 19.2 µM. For the same compound, the TGI [17] was 53.7 µM, the GI50 [18] was 21.2 µM and the TGI [18] was 51.5 µM. For the same compound, the GI50 [19] was 28.5 µM, the TGI [19] was 70.9 µM and the GI50 [20] was 26.1 µM. The TGI [20] was 86 µM, the GI50 [21] was 21.2 µM and the TGI [21] was 58.4 µM. The GI50 [22] was 24.8 µM, the TGI [22] was 74.4 µM and the GI50 [23] was 15.8 µM. For the same compound, the TGI [23] was 29.4 µM, the GI50 [24] was 21.3 µM and the TGI [24] was 56.9 µM. For the same compound, the GI50 [25] was 52.1 µM, the TGI [25] was over 100 µM and the GI50 [26] was 29.8 µM. It also gave a TGI [26] of 81.1 µM, a GI50 [27] of 23.7 µM and a TGI [27] of 59.9 µM. The GI50 [28] was 22.4 µM, the TGI [28] was 44.7 µM and the GI50 [29] was 26.2 µM. For the same compound, the TGI [29] was 63.5 µM, the GI50 [30] was 28.8 µM and the TGI [30] was 80.1 µM. The GI50 [31] was 28 µM, the TGI [31] was 66.7 µM and the GI50 [32] was 28.3 µM. The TGI [32] was 60.7 µM, the GI50 [33] was 30.2 µM and the TGI [33] was 88.2 µM. It also gave a GI50 [34] of 12.8 µM, a TGI [34] of 43.1 µM and a GI50 [35] of 24.9 µM. The TGI [35] was 74 µM, the GI50 [36] was 15.5 µM and the TGI [36] was 36.1 µM. The GI50 [37] was 19.6 µM, the TGI [37] was 44.5 µM and the GI50 [38] was 30.5 µM. The TGI [38] was over 100 µM, the GI50 [39] was 18 µM and the TGI [39] was 33.6 µM. For the same compound, the GI50 [40] was 25.4 µM, the TGI [40] was 74.1 µM and the GI50 [41] was 32 µM. It also gave a TGI [41] of over 100 µM, a GI50 [42] of 18.6 µM and a TGI [42] of 36.3 µM. It also gave a GI50 [43] of 17.9 µM, a TGI [43] of 42.1 µM and a GI50 [44] of 23.1 µM. The TGI [44] was 72.5 µM, the GI50 [45] was 35.1 µM and the TGI [45] was over 100 µM. For the same compound, the GI50 [46] was 30.5 µM, the TGI [46] was 88.7 µM and the GI50 [47] was 16 µM. For the same compound, the TGI [47] was 35.1 µM, the GI50 [48] was 31.1 µM and the TGI [48] was over 100 µM. For the same compound, the GI50 [49] was 29 µM, the TGI [49] was 94.3 µM and the GI50 [50] was 16.1 µM. The TGI [50] was 33.6 µM, the GI50 [51] was 23.2 µM and the TGI [51] was 49.2 µM. For the same compound, the GI50 [52] was 20.3 µM, the TGI [52] was 43.9 µM and the GI50 [53] was 26.6 µM. For the same compound, the TGI [53] was 73.6 µM, the GI50 [54] was 24.2 µM and the TGI [54] was 54.1 µM.
